Measured values reported in patent US10774049B2, “PU.1 inhibitors” (Albert Einstein College of Medicine, priority 2016, dated 2020).
Structures can show the parent of a compound that is named as a salt.

Experiments:
PU.1 URE−/− AML cells [1] = assay: Transplantation of in vitro treated PU.1 URE−/− AML cells into sublethally irradiated mice; type: in vivo, mouse
Description: FIG. 6A-6H. Treatment with PU1 inhibitors increases survival and decreases tumor burden in vivo. (A) Experimental scheme. URE−/− cells were treated in vitro with DB2313 or Vehicle and counted after 2 days of culture. 200·10^3 viable cells per mouse were injected retroorbitally into sublethally irradiated mice. Mice were sacrificed at 6 weeks or used for survival analyses. (B) Kaplan-Meier survival analysis of transplanted mice (x animals for vehicle group, xx for DB2313 group, from 2 independent experiments, p=). (C,D) Spleen and liver weight 6 weeks after transplant (8 animals for vehicle group, 7 for DB2313 group). Data represent means±SD, each mouse is represented by an individual dot. (E) Chimerism of URE−/− cells in the bone marrow 6 weeks after transplant (14 animals per group from 2 independent experiments).
To assess the effect of PU.1 inhibitors on AML in vivo, we treated PU.1 URE^−/− AML cells for 2 days in vitro and injected 2×10^5 viable cells in sublethally irradiated recipient mice (FIG. 6A).

PU.1 URE−/− AML cells [2] = assay: Gene expression (transcriptome) analysis of PU.1 URE−/− AML cells; type: cell-based, murine; conditions: by at least 1.2-fold
Description: FIG. 3A-3G. Novel inhibitors show on-target PU.1 inhibitory activity. (A) Quantitative RT-PCR analysis of Csf1r, Junb, Sfpi1, E2f1 expression after 72 h (n=6) and, for Csf1r, after 1 h (n=3), 4 h (n=7), 8 h (n=3) and 24 h (n=3) of treatment with the small molecules in URE−/− cells, expression is normalized to GAPDH expression. Data represent means±SD of technical triplicate from one representative experiment; fold change compared to Vehicle is shown. (B) Chromatin immunoprecipitation assay showing PU.1 occupancy on E2f1, Junb, Csf1r promoters after treatment in Umsh cell line (n=5). 10·10^6 cells were collected for each condition after 8 h treatment with a double dose of the small molecules (50 uM for DB1976, 1.4 uM for DB2115 and 660 nM for DB2313) or Vehicle; and processed for ChIP using PU.1 monoclonal antibody. Myogenin was used as a negative control, not regulated by PU.1. Data represent means±SD of technical triplicate from one representative experiment. (C) Cell viability after PU.1 rescue in MOLM13 cells. MOLM13 were transduced with a lentiviral construct expressing either PU.1-GFP (PU.1, black bar) or GFP as a control (empty, white bar), sorted on GFP and plated with DB1976 (n=7), DB2115 (n=8), DB2313 (n=6) or Vehicle. Cell count was performed after 4 days. Data represent means±SD of technical triplicate from one representative experiment; fold change compared to Vehicle is shown. (D-G) Transcriptome analysis of URE−/− cells after 24 h of treatment with DB2313 versus vehicle (n=3). Differentially expressed genes were determined with a fold change at 1.2 and a P value <0.1. (D) Enrichment in genes directly regulated by PU.1 or in genes regulated by the other ETS transcription factors Ets1, Gabpa, Spi-B, Fli-1, using Ingenuity Knowledge Base. The red dotted line represents the significance threshold (−log (P value)>1.3). […] Deregulated gens in PUER cells were analyzed with a FC at 1.5 and P-value <0.05. […] P-value was calculated using the hypergeometric test. […]

PU.1 URE−/− AML cells [3] = assay: Colony forming capacity and serial replating of PU.1 URE−/− AML cells; type: cell-based, murine
Description: FIG. 2A-2F. PU.1 inhibition decreases cell growth and increases apoptosis of PU.1^1″ leukemic cells. (A) Chemical structures of heterocyclic diamidines DB1976, DB2115 and DB2313 used in this study. (B) Relative cell viability of URE−/− cells and BAF3 cells after treatment with increasing concentrations of vehicle or small molecules. Cell viability was assessed after 48 h. Data represent means of technical triplicate from one representative experiment; fold change compared to Vehicle is shown. (C) Cell proliferation assay of URE−/− after treatment with DB1976 (n=5), DB2115 (n=3), DB2313 (n=3), of MOLM13 cells (n=3), and THP1 cells (n=3). Cell counting was performed every 24 h during 4 days. Data represent means±SD of technical triplicate from one representative experiment. Forward strand: SEQ ID NO:3, and Reverse strand: SEQ ID NO:4; derived from the λB motif from the murine Ig lambda 2-4 enhancer, a known native PU.1-dependent gene and specific binding site for PU.1. (D) Clonogenic capacities of URE−/− cells after treatment with DB1976 (n=5), DB2115 (n=3) and DB2313 (n=4) in the first plating, and after serial replatings (n=3). Data represent means±SD of technical triplicate from one representative experiment. (E) Apoptotic cells (Annexin-V+Dapi−) fraction in URE−/− cells after 48 h of treatment with DB1976 (n=6), DB2115 (n=6) and DB2313 (n=3). […]

`CC(C)NC(=N)c1ccc2nc(-c3ccc(OCc4cccc(COc5ccc(-c6nc7ccc(C(=N)NC(C)C)cc7[nH]6)cc5)c4F)cc3)[nH]c2c1` [DB2313, 3-Bis{4[4(5)-N-isopropylamidinobenzimidazolyl]phenoxymethyl]}-2-fluorobenzene tetrahydrochloride] was tested, and the “mean chimerism, AML cell engraftment in the bone marrow” value (PU.1 URE−/− AML cells [1]; 6 weeks after transplant, vehicle 55%) was 33%, the splenic mean weight (PU.1 URE−/− AML cells [1]; 6 weeks post transplantation, vehicle 410 mg) was 243 mg and the liver mean weight (PU.1 URE−/− AML cells [1]; 6 weeks post transplantation, vehicle 2,347 mg) was 1,548 mg. For the same compound, the “median latency (survival of recipient mice)” value (PU.1 URE−/− AML cells [1]; cells treated 2 days in vitro, vehicle 44 days) was 68 days, the “histology: blast infiltration and disruption of splenic architecture” value (PU.1 URE−/− AML cells [1]; in comparison to vehicle group) was “significantly less pronounced effects” and the “infiltration of the liver by leukemic blasts” value (PU.1 URE−/− AML cells [1]; in comparison to vehicle group) was “substantially reduced”. The “number of downregulated probe sets” value (PU.1 URE−/− AML cells [2]) was 781 probe sets, the “number of upregulated probe sets” value (PU.1 URE−/− AML cells [2]) was 867 probe sets and the “number of dysregulated transcripts (out of 34,472 total)” value (PU.1 URE−/− AML cells [2]; 24 h) was 1648 transcripts. The “clonogenic capacity in serial replating, 4th and higher rounds of plating” value (PU.1 URE−/− AML cells [3]) was “complete disruption” and the “clonogenicity in serial replating, second and third rounds of plating” value (PU.1 URE−/− AML cells [3]) was “highly significant decrease”.
